Source: PubChem BioAssay (NCI)
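Test compounds were applied to cells in 96-well plates for 48 hours at 5 doses. At the GI50, growth is halved. TGI is the concentration that stops growth completely.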

Legend:
Test in all cases: DTP human tumour cell line panel, 48 h
NCI-H460 lung = system: NCI-H460 lung
HCT-116 colon = system: HCT-116 colon
DU-145 prostate = system: DU-145 prostate
SN12C renal = system: SN12C renal
ACHN renal = system: ACHN renal
RXF 393 renal = system: RXF 393 renal
NCI-H522 lung = system: NCI-H522 lung
HCC-2998 colon = system: HCC-2998 colon
MALME-3M melanoma = system: MALME-3M melanoma
UACC-62 melanoma = system: UACC-62 melanoma
SNB-75 CNS = system: SNB-75 CNS
MCF7 breast = system: MCF7 breast
UACC-257 melanoma = system: UACC-257 melanoma
SF-295 CNS = system: SF-295 CNS
T-47D breast = system: T-47D breast
HCT-15 colon = system: HCT-15 colon
CAKI-1 renal = system: CAKI-1 renal
OVCAR-5 ovarian = system: OVCAR-5 ovarian
SW-620 colon = system: SW-620 colon
UO-31 renal = system: UO-31 renal
SK-MEL-2 melanoma = system: SK-MEL-2 melanoma
A549 NSCLC = system: A549 NSCLC
OVCAR-3 ovarian = system: OVCAR-3 ovarian
HT29 colon = system: HT29 colon
NCI-H226 lung = system: NCI-H226 lung
SNB-19 CNS = system: SNB-19 CNS
HL-60(TB) leukemia = system: HL-60(TB) leukemia
HS 578T breast = system: HS 578T breast
EKVX NSCLC = system: EKVX NSCLC
U251 CNS = system: U251 CNS
MDA-MB-231 breast = system: MDA-MB-231 breast
SF-539 CNS = system: SF-539 CNS
SK-OV-3 ovarian = system: SK-OV-3 ovarian
SK-MEL-28 melanoma = system: SK-MEL-28 melanoma
HOP-92 NSCLC = system: HOP-92 NSCLC
K-562 leukemia = system: K-562 leukemia
PC-3 prostate = system: PC-3 prostate
MDA-MB-435 = system: MDA-MB-435
MDA-MB-468 breast = system: MDA-MB-468 breast
KM12 colon = system: KM12 colon
786-0 renal = system: 786-0 renal
A498 renal = system: A498 renal
COLO 205 colon = system: COLO 205 colon
NCI-H23 lung = system: NCI-H23 lung
IGROV1 ovarian = system: IGROV1 ovarian
BT-549 breast = system: BT-549 breast
M14 melanoma = system: M14 melanoma
TK-10 renal = system: TK-10 renal
HOP-62 NSCLC = system: HOP-62 NSCLC
SF-268 CNS = system: SF-268 CNS
CCRF-CEM leukemia = system: CCRF-CEM leukemia
OVCAR-8 ovarian = system: OVCAR-8 ovarian
RPMI-8226 leukemia = system: RPMI-8226 leukemia
NCI/ADR-RES ovarian = system: NCI/ADR-RES ovarian
LOX IMVI melanoma = system: LOX IMVI melanoma
SK-MEL-5 melanoma = system: SK-MEL-5 melanoma

SMILES: CN(C)c1nc(NCCNS(=O)(=O)c2ccc(C3=Nc4c(N)nc(N)nc4NC(c4ccc(Cl)cc4)C3)cc2)nc(Nc2ccc(F)cc2)n1 (configuration not stated)
- GI50 (NCI-H460 lung): 4.49 µM
- TGI (NCI-H460 lung): > 100 µM
- GI50 (HCT-116 colon): 3.77 µM
- TGI (HCT-116 colon): > 100 µM
- GI50 (DU-145 prostate): > 100 µM
- TGI (DU-145 prostate): > 100 µM
- GI50 (SN12C renal): 7.38 µM
- TGI (SN12C renal): > 100 µM
- GI50 (ACHN renal): > 100 µM
- TGI (ACHN renal): > 100 µM
- GI50 (RXF 393 renal): 2.27 µM
- TGI (RXF 393 renal): 8.75 µM
- GI50 (NCI-H522 lung): 16 µM
- TGI (NCI-H522 lung): > 100 µM
- GI50 (HCC-2998 colon): 3.14 µM
- TGI (HCC-2998 colon): 18.4 µM
- GI50 (MALME-3M melanoma): 3.86 µM
- TGI (MALME-3M melanoma): 19.2 µM
- GI50 (UACC-62 melanoma): 6.46 µM
- TGI (UACC-62 melanoma): > 100 µM
- GI50 (SNB-75 CNS): 3.76 µM
- TGI (SNB-75 CNS): > 100 µM
- GI50 (MCF7 breast): 2.89 µM
- TGI (MCF7 breast): > 100 µM
- GI50 (UACC-257 melanoma): 8.07 µM
- TGI (UACC-257 melanoma): > 100 µM
- GI50 (SF-295 CNS): 6.2 µM
- TGI (SF-295 CNS): > 100 µM
- GI50 (T-47D breast): 7.93 µM
- TGI (T-47D breast): > 100 µM
- GI50 (HCT-15 colon): > 100 µM
- TGI (HCT-15 colon): > 100 µM
- GI50 (CAKI-1 renal): 8.07 µM
- TGI (CAKI-1 renal): > 100 µM
- GI50 (OVCAR-5 ovarian): > 100 µM
- TGI (OVCAR-5 ovarian): > 100 µM
- GI50 (SW-620 colon): 5.95 µM
- TGI (SW-620 colon): > 100 µM
- GI50 (UO-31 renal): > 100 µM
- TGI (UO-31 renal): > 100 µM
- GI50 (SK-MEL-2 melanoma): 3.34 µM
- TGI (SK-MEL-2 melanoma): 14 µM
- GI50 (A549 NSCLC): > 100 µM
- TGI (A549 NSCLC): > 100 µM
- GI50 (OVCAR-3 ovarian): 7.45 µM
- TGI (OVCAR-3 ovarian): > 100 µM
- GI50 (HT29 colon): 2.68 µM
- TGI (HT29 colon): 7.54 µM
- GI50 (NCI-H226 lung): > 100 µM
- TGI (NCI-H226 lung): > 100 µM
- GI50 (SNB-19 CNS): 5.67 µM
- TGI (SNB-19 CNS): > 100 µM
- GI50 (HL-60(TB) leukemia): 2.72 µM
- TGI (HL-60(TB) leukemia): 13.3 µM
- GI50 (HS 578T breast): 7.15 µM
- TGI (HS 578T breast): > 100 µM
- GI50 (EKVX NSCLC): 5.05 µM
- TGI (EKVX NSCLC): > 100 µM
- GI50 (U251 CNS): 5.14 µM
- TGI (U251 CNS): > 100 µM
- GI50 (MDA-MB-231 breast): 3.73 µM
- TGI (MDA-MB-231 breast): 65.7 µM
- GI50 (SF-539 CNS): 3.3 µM
- TGI (SF-539 CNS): > 100 µM
- GI50 (SK-OV-3 ovarian): > 100 µM
- TGI (SK-OV-3 ovarian): > 100 µM
- GI50 (SK-MEL-28 melanoma): 8.22 µM
- TGI (SK-MEL-28 melanoma): > 100 µM
- GI50 (HOP-92 NSCLC): 2.53 µM
- TGI (HOP-92 NSCLC): 13.2 µM
- GI50 (K-562 leukemia): 3.08 µM
- TGI (K-562 leukemia): > 100 µM
- GI50 (PC-3 prostate): 3.44 µM
- TGI (PC-3 prostate): > 100 µM
- GI50 (MDA-MB-435): 5.17 µM
- TGI (MDA-MB-435): > 100 µM
- GI50 (MDA-MB-468 breast): 1.92 µM
- TGI (MDA-MB-468 breast): 4.92 µM
- GI50 (KM12 colon): 3.98 µM
- TGI (KM12 colon): > 100 µM
- GI50 (786-0 renal): 6.21 µM
- TGI (786-0 renal): > 100 µM
- GI50 (A498 renal): 58.4 µM
- TGI (A498 renal): > 100 µM
- GI50 (COLO 205 colon): 5.65 µM
- TGI (COLO 205 colon): 25.6 µM
- GI50 (NCI-H23 lung): 72.7 µM
- TGI (NCI-H23 lung): > 100 µM
- GI50 (IGROV1 ovarian): 9.95 µM
- TGI (IGROV1 ovarian): > 100 µM
- GI50 (BT-549 breast): 3.96 µM
- TGI (BT-549 breast): 28.7 µM
- GI50 (M14 melanoma): 3.15 µM
- TGI (M14 melanoma): 11.5 µM
- GI50 (TK-10 renal): > 100 µM
- TGI (TK-10 renal): > 100 µM
- GI50 (HOP-62 NSCLC): > 100 µM
- TGI (HOP-62 NSCLC): > 100 µM
- GI50 (SF-268 CNS): 5.74 µM
- TGI (SF-268 CNS): > 100 µM
- GI50 (CCRF-CEM leukemia): 2.92 µM
- TGI (CCRF-CEM leukemia): > 100 µM
- GI50 (OVCAR-8 ovarian): > 100 µM
- TGI (OVCAR-8 ovarian): > 100 µM
- GI50 (RPMI-8226 leukemia): 3.19 µM
- TGI (RPMI-8226 leukemia): > 100 µM
- GI50 (NCI/ADR-RES ovarian): > 100 µM
- TGI (NCI/ADR-RES ovarian): > 100 µM
- GI50 (LOX IMVI melanoma): 1.77 µM
- TGI (LOX IMVI melanoma): 3.55 µM
- GI50 (SK-MEL-5 melanoma): 3.45 µM
- TGI (SK-MEL-5 melanoma): 14.3 µM
